Source: US20220054501A1, “[…] ESTROGEN-RECEPTOR b (ER.beta) POSITIVE BREAST TUMOR” (DCIC Biopharmaceutical Limited, priority 2018, published 2022)

Columns and labels:
[1] = system: ERβ positive breast cancer; experiment: treatment success of Anastrozol and Letrozol compared with the topical prodrug (Example 2); assay type: in vivo, human; conditions: for treatment success: patients, treated according to current treatment guidelines
Method: Studies were carried out on patients suffering from ERβ positive breast cancer.
First, the patients were treated with non-steroidal aromatase-inhibitors Anastrozol or Letrozol, the treatment was carried out according to the respective current treatment guidelines.
Then, said patients were treated with the pharmaceutical composition comprising the prodrug according to the present invention, that is, the prodrug (4-OHA) was applied topically to the affected breast.

[2] = skin penetration on topical administration; conditions: topical administration (ointment, lotion or cream)
Source text: After topical administration, the compound(s) penetrate through the skin and concentrate in the fatty tissue.

[3] = system: ER positive breast cancer; experiment: shrinking of breast tumor, 2.5 wt.-% 4-OHA crème (Example 1.2); assay type: in vivo, human; conditions: 4 ml crème with 2.5 wt.-% 4-OHA, 2 times/day, after 3-5 weeks
Method: 1.2 Application of 4 ml of a crème (2 times/day) comprising 2.5 wt.-% 4-OHA to a breast suffering from an ER positive breast cancer.

[4] = system: ERβ positive breast cancer tumors; experiment: shrinking of breast tumor tissue, topical prodrug (Example 1.1); assay type: in vivo, human; conditions: patients, tumors max 2 cm, after three weeks of treatment
Method: 1.1 Patients that were diagnosed (by mammography) with ERβ positive breast cancer tumors with a maximum size of 2 cm were treated with the pharmaceutical composition comprising the prodrug of the present invention: The prodrug was applied topically to the affected breast.

[5] = target: ERβ (Homo sapiens, UniProt Q92731); experiment: binding affinity towards ERβ compared with ERα; conditions: fold higher for ERβ
[6] = system: MDA-MB-231 cells; experiment: inhibition of proliferation of MDA MB-231 cells; assay type: cell-based, human
Method: MDA-MB-231 cell line is a highly aggressive, invasive, and poorly differentiated epithelial human breast cancer cell line. It lacks estrogen receptor a (ERα) and progesterone receptor (PR) expression, as well as HER2 (human epidermal growth factor 2) amplification. MDA-MB-231 cell line is ERβ positive. It is a model cell line for triple negative breast cancer (TNBC) being ERβ positive.
Two different concentrations of MDA-MB-231 cells (1.0e3 and 2.5e3) were incubated with increasing concentrations of 4-OHT (K+; 0.5 μM; 1 μM; 5 μm; 10 μM; 20 μM). The cells were incubated for 6 days (d). Then, absorption at 492 nm was measured.

Sequence of ERβ (Q92731 whole entry): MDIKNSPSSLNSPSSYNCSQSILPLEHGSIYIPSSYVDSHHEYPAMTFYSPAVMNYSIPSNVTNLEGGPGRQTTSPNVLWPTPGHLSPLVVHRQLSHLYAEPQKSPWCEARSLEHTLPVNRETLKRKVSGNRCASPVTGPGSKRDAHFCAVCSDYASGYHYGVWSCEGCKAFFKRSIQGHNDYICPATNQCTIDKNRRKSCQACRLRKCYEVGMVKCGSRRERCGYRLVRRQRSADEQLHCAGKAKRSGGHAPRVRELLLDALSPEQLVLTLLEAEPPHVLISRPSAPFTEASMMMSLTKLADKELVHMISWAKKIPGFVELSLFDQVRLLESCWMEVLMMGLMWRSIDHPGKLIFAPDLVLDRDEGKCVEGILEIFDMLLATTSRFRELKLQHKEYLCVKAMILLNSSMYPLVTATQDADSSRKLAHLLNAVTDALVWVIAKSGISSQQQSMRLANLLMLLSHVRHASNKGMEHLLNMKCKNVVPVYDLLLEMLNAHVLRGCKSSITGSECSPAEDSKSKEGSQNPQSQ

C[C@]12CCC(=O)C(O)=C1CC[C@@H]1[C@@H]2CC[C@]2(C)C(=O)CC[C@@H]12 [4-OHA, 4-hydroxyandrost-4-ene-3,17-dione]
patients with stabilisation of the disease over 6 months ([1]; topical, after unsuccessful Anastrozol or Letrozol treatment): 50%
skin penetration capabilities [2]: excellent skin penetration capabilities
size of the tumor [3]: significantly decreased
tumor size [4]: reduction in tumor size

C[C@]12CC[C@H]3[C@@H](CCC4C(O)C(O)CC[C@@]43C)[C@@H]1CC[C@@H]2O (stereo partly drawn) [4-OHBA, 4-hydroxy-5-alpha-androstane-3-beta,17beta-diol]
affinity towards ERβ relative to affinity towards ERα [5]: about 10 times

C[C@]12CC[C@H]3[C@@H](CCC4=C(O)C(=O)CC[C@@]43C)[C@@H]1CC[C@@H]2O [4-OHT, 4-hydroxytestosterone]
end concentration from which significant inhibition of cell growth takes place ([6]; 6 d incubation, absorption at 492 nm): at least 5 μM/L
inhibition at 5 µM ([6]; Homo sapiens, MDA-MB-231, 144 h, 5 μM/L 4-OHT, cell concentration 1.0e3, 6 d, read-out: inhibition of cell growth): ~50%
inhibition at 20 µM ([6]; Homo sapiens, MDA-MB-231, 144 h, 20 μM/L 4-OHT, 6 d, read-out: inhibition of cell growth): 75 to 80%

CC(C)(C#N)c1cc(Cn2cncn2)cc(C(C)(C)C#N)c1 [Anastrozol]
treatment success [1]: not successful

N#Cc1ccc(C(c2ccc(C#N)cc2)n2cncn2)cc1 [Letrozol]
treatment success [1]: not successful
